The text below walks through data of US12679878B2, “CRF2 receptor agonists and their use in therapy” (SANOFI, priority 2020, dated 2026).

Each structure is given as a SMILES string. Starred links: 1 amine or outer side, 2 acyl side, 3 side chain; linkers in the order of their positions; H or OH if unused. Non-standard residues stand in square brackets, D forms with d. Residues, ends and D or L forms follow the SMILES beside them. Groups on a side chain read outwards from the residue. *: point of attachment. C18 diacid = O=C(O)CCCCCCCCCCCCCCCCC(=O)*; γGlu = O=C(O)[C@H](CCC(=O)[*:2])N[*:1]; Palmitoyl = CCCCCCCCCCCCCCCC(=O)*; AEEA = NCCOCCOCC(=O)O; Aib = CC(C)(N)C(=O)O

In general, EC50 refers to the midpoint of the concentration-response curve. Read a high EC50 as lower potency in that assay. Usually Emax stands for the size of the effect at its maximum, as opposed to the concentration needed.

Common to all, as to format: cell-based
One test relates to rat CRF2R α receptor. Kind of test: cAMP agonism at rat CRF2R α receptor in A7R5 rat aortic smooth muscle cells (Example 8). Particulars: cAMP HTRF, A7R5 rat aortic smooth muscle cell line, 0% HSA. The essentials:
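Potency (EC50) is the concentration reaching half-maximal activation, with responses scaled so that 1000 nM urocortin 2 equals 100%. Intracellular cAMP was quantified by homogeneous time-resolved fluorescence at 665/620 nm, 1 h after lysis-buffer reagents. Compound stimulation lasted 30 min at room temperature on 2000 IBMX-treated (2 mM) cells per well in HEPES-buffered HBSS.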
A general note: TR-FRET usually uses a lanthanide donor and a delayed reading to cut background.

Test [1] deals with T1, CRF1R receptor (Homo sapiens, UniProt P34998).
T1 construct: host or cells: CHO-K1 clone 2
T1 sequence (P34998 24-415): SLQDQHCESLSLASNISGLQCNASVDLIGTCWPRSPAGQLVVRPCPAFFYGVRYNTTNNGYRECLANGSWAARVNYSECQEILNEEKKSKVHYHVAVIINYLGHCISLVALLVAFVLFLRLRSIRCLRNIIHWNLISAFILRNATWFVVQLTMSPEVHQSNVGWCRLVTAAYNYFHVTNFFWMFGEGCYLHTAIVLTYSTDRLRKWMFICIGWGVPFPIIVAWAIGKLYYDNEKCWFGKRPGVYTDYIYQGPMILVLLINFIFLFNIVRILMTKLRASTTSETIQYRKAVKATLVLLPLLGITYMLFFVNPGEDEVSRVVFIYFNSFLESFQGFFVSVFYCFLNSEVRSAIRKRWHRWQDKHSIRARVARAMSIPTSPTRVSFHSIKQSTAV
Kind of test: cAMP activity at anti-target CRF1R, CHO-K1 cell line clone 2 (Example 19.10). Particulars: 100% = Sauvagine at 100 nM; CRF1R CHO-K1 clone 2. The method in brief:
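The cAMP read-out used the same protocol as the previous assay, except that Sauvagine at 100 nM set the 100% activation control. Cells were CHO-K1 clone 2 overexpressing CRF1R, cultured in F12 medium with 10% FBS and G418 and stored frozen until use.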

In test [2] the target is T1, CRF1R receptor. Kind of test: cAMP activity at anti-target CRF1R, CRF1R-overexpression CHO cell line (Example 9). Particulars: CRF1R-overexpression CHO cell line; read-out: Emax (%). The method, then: Cells were grown in a T175 culture flask placed at 37° C. to near confluence in medium (DMEM/10% FBS) and collected in 2 ml vials in cell culture medium containing 10% DMSO in a concentration of 10-50 million cells/ml. Each vial contained 1.8 ml cells. The vials were slowly frozen to −80° C. in isopropanol and then transferred in liquid nitrogen for storage. Prior to use, frozen cells were thawed quickly at 37° C. and washed (5 min at 900 rpm) with 20 ml cell buffer (1×HBSS; 20 mM HEPES; 0% or 0.1% HSA). Cells were resuspended in assay buffer (cell buffer plus 2 mM IBMX) and adjusted to a cell density of 1 million cells/ml. For measurement, 5 μl cells (final […]) and 5 μL of test compound were added to a 384-well plate, followed by incubation for 30 minutes at room temperature.
The CAMP content of cells was determined using a kit from Cisbio Corp. (cat. no. 62AM4PEC) based on HTRF (Homogenous Time Resolved Fluorescence). […] The percent activity value (E %) was calculated by setting 1000 nM of urocortin 2 (UCN2) as 100%.
A CRF1R-overexpression CHO cell line was used in this study.

As to `CCCCCCCCCCCCCCCC(=O)N[C@@H](CCC(=O)NCCCC[C@H](NC(=O)[C@H](CC(C)C)NC(=O)[C@H](CCCCN)NC(=O)[C@@H](NC(=O)[C@@H]1CCCN1C(=O)[C@H](NC(=O)[C@H](CC(=O)O)NC(=O)[C@H](CC(C)C)NC(=O)[C@H](CO)NC(=O)[C@H](CC(C)C)NC(=O)[C@@H](NC(=O)[C@@H](N)[C@@H](C)CC)C(C)C)C(C)C)[C@@H](C)O)C(=O)N[C@@H](CCC(N)=O)C(=O)N[C@@H](CCCCN)C(=O)N[C@@H](CC(C)C)C(=O)N[C@@H](CC(C)C)C(=O)N[C@@H](CCCCN)C(=O)N[C@@H](CCC(N)=O)C(=O)N[C@@H](CCC(=O)O)C(=O)N[C@@H](CCCNC(=N)N)C(=O)N[C@@H](CCC(N)=O)C(=O)N[C@@H](CCCNC(=N)N)C(=O)N[C@@H](CCCCN)C(=O)N[C@@H](CCC(=O)O)C(=O)N[C@@H](CCCNC(=N)N)C(=O)N[C@@H](CCC(=O)O)C(=O)NC(C)(C)C(=O)N[C@@H](C)C(=O)N[C@@H](CCC(=O)O)C(=O)N[C@@H](CCCCN)C(=O)N[C@@H](CC(N)=O)C(=O)N[C@@H](CCCCN)C(=O)N[C@@H](CCCNC(=N)N)C(=O)N[C@H](C(=O)N[C@@H](CC(C)C)C(=O)N[C@@H](CCC(=O)O)C(=O)N[C@@H](CCCNC(=N)N)C(=O)N[C@H](C(N)=O)C(C)C)[C@@H](C)CC)C(=O)O` [SEQ ID NO: 225, IVLSLDvPTKLK*QKLLKQERQRKEREAibAEKNKRILERV-NH2] (H-IVLSLD[dV]PTKLK([γGlu-Palmitoyl])QKLLKQERQRKERE[Aib]AEKNKRILERV-NH2; N-terminus assumed), the response in the test with rat CRF2R α receptor was half-maximal at 0.12 nM (EC50). For the same molecule, the Emax on CRF1R receptor [1] came to 58.9%.

In the test on rat CRF2R α receptor, `CCCCCCCCCCCCCCCC(=O)N[C@@H](CCC(=O)NCCCC[C@H](NC(=O)[C@H](CC(C)C)NC(=O)CNC(=O)[C@@H](NC(=O)[C@@H]1CCCN1C(=O)[C@H](NC(=O)[C@H](CC(=O)O)NC(=O)[C@H](CC(C)C)NC(=O)[C@H](CO)NC(=O)[C@H](CC(C)C)NC(=O)[C@@H](NC(=O)[C@@H](N)[C@@H](C)CC)C(C)C)C(C)C)[C@@H](C)CC)C(=O)N[C@@H](CCC(N)=O)C(=O)N[C@@H](CCCCN)C(=O)N[C@@H](CC(C)C)C(=O)N[C@@H](CC(C)C)C(=O)N[C@@H](CCCCN)C(=O)N[C@@H](CCC(N)=O)C(=O)N[C@@H](CCC(N)=O)C(=O)N[C@@H](CCCNC(=N)N)C(=O)N[C@@H](CCC(N)=O)C(=O)N[C@@H](CCCNC(=N)N)C(=O)N[C@@H](CCCCN)C(=O)N[C@@H](CCC(=O)O)C(=O)N[C@@H](CCCNC(=N)N)C(=O)N[C@@H](CCC(N)=O)C(=O)N[C@@H](CCC(N)=O)C(=O)N[C@@H](C)C(=O)N[C@@H](CCC(=O)O)C(=O)N[C@@H](CCCCN)C(=O)N[C@@H](CC(N)=O)C(=O)N[C@@H](CCCCN)C(=O)N[C@@H](CCCNC(=N)N)C(=O)N[C@H](C(=O)N[C@@H](CC(C)C)C(=O)N[C@@H](CCC(=O)O)C(=O)N[C@@H](CCCNC(=N)N)C(=O)N[C@H](C(N)=O)C(C)C)[C@@H](C)CC)C(=O)O` [SEQ ID NO: 226] (H-IVLSLD[dV]PIGLK([γGlu-Palmitoyl])QKLLKQQRQRKERQQAEKNKRILERV-NH2; N-terminus assumed) came in with an EC50 of 0.04 nM. For the same molecule, on CRF1R receptor [1], the Emax stood at 84%.

The molecule `CC[C@H](C)[C@H](NC(C)=O)C(=O)N[C@H](C(=O)N[C@@H](CC(C)C)C(=O)N[C@@H](CO)C(=O)N[C@@H](CC(C)C)C(=O)N[C@@H](CC(=O)O)C(=O)N[C@@H](C(=O)N1CCC[C@H]1C(=O)N[C@H](C(=O)NCC(=O)N[C@@H](CC(C)C)C(=O)N[C@@H](CCCCNC(=O)COCCOCCNC(=O)COCCOCCNC(=O)CC[C@H](NC(=O)CCCCCCCCCCCCCCCCC(=O)O)C(=O)O)C(=O)N[C@@H](CCC(N)=O)C(=O)N[C@H](C(=O)N[C@@H](CC(C)C)C(=O)N[C@@H](CC(C)C)C(=O)N[C@@H](CCC(=O)O)C(=O)N[C@@H](CCC(N)=O)C(=O)N[C@@H](CCC(=O)O)C(=O)N[C@@H](CCCNC(=N)N)C(=O)N[C@@H](CCC(N)=O)C(=O)N[C@@H](CCCCN)C(=O)NC(C)(C)C(=O)N[C@@H](CCC(N)=O)C(=O)N[C@@H](CCCNC(=N)N)C(=O)N[C@@H](CCC(=O)O)C(=O)N[C@@H](CCC(N)=O)C(=O)N[C@@H](C)C(=O)N[C@@H](CCC(=O)O)C(=O)N[C@@H](CCCCN)C(=O)N[C@@H](CC(N)=O)C(=O)N[C@@H](CCCCN)C(=O)N[C@@H](CCC(N)=O)C(=O)N[C@H](C(=O)N[C@@H](CC(C)C)C(=O)N[C@@H](CCC(=O)O)C(=O)N[C@@H](CCC(N)=O)C(=O)N[C@H](C(N)=O)C(C)C)[C@@H](C)CC)[C@@H](C)CC)[C@@H](C)CC)C(C)C)C(C)C` [compound 164] (Ac-IVLSLD[dV]PIGLK([AEEA-AEEA-γGlu-C18 diacid])QILLEQERQK[Aib]QREQAEKNKQILEQV-NH2) returned an EC50 in the test on rat CRF2R α receptor of 12.6 nM. The Emax at CRF1R receptor [2] amounted to 25.8%.

Turning to `CC[C@H](C)[C@H](NC(C)=O)C(=O)N[C@H](C(=O)N[C@@H](CC(C)C)C(=O)N[C@@H](CO)C(=O)N[C@@H](CC(C)C)C(=O)N[C@@H](CC(=O)O)C(=O)N[C@@H](C(=O)N1CCC[C@H]1C(=O)N[C@H](C(=O)N[C@@H](CCCCN)C(=O)N[C@@H](CC(C)C)C(=O)N[C@@H](CCCCNC(=O)COCCOCCNC(=O)COCCOCCNC(=O)CC[C@H](NC(=O)CCCCCCCCCCCCCCCCC(=O)O)C(=O)O)C(=O)N[C@@H](CCC(N)=O)C(=O)N[C@H](C(=O)N[C@@H](CC(C)C)C(=O)N[C@@H](CC(C)C)C(=O)N[C@@H](CCC(=O)O)C(=O)N[C@@H](CCC(N)=O)C(=O)N[C@@H](C)C(=O)N[C@@H](CCCNC(=N)N)C(=O)N[C@@H](CCC(N)=O)C(=O)N[C@@H](CCCCN)C(=O)NC(C)(C)C(=O)N[C@@H](CCC(N)=O)C(=O)N[C@@H](CCCNC(=N)N)C(=O)N[C@@H](CCC(=O)O)C(=O)N[C@@H](CCC(N)=O)C(=O)N[C@@H](C)C(=O)N[C@@H](CCC(=O)O)C(=O)N[C@@H](CCCCN)C(=O)N[C@@H](CC(N)=O)C(=O)N[C@@H](CCC(=O)O)C(=O)N[C@@H](CCC(N)=O)C(=O)N[C@H](C(=O)N[C@@H](CC(C)C)C(=O)N[C@@H](CCC(=O)O)C(=O)N[C@@H](CCC(N)=O)C(=O)N[C@H](C(N)=O)C(C)C)[C@@H](C)CC)[C@@H](C)CC)[C@@H](C)CC)C(C)C)C(C)C` [compound 165] (Ac-IVLSLD[dV]PIKLK([AEEA-AEEA-γGlu-C18 diacid])QILLEQARQK[Aib]QREQAEKNEQILEQV-NH2), in the test with rat CRF2R α receptor, a half-maximal response (EC50) required 2.41 nM. Moreover, the Emax at CRF1R receptor [2] is 26.9%.

The molecule `CC[C@H](C)[C@H](NC(C)=O)C(=O)N[C@H](C(=O)N[C@@H](CC(C)C)C(=O)N[C@@H](CO)C(=O)N[C@@H](CC(C)C)C(=O)N[C@@H](CC(=O)O)C(=O)N[C@@H](C(=O)N1CCC[C@H]1C(=O)N[C@H](C(=O)N[C@@H](CCCCN)C(=O)N[C@@H](CC(C)C)C(=O)N[C@@H](CCCCNC(=O)COCCOCCNC(=O)COCCOCCNC(=O)CC[C@H](NC(=O)CCCCCCCCCCCCCCCCC(=O)O)C(=O)O)C(=O)N[C@@H](CCC(N)=O)C(=O)N[C@H](C(=O)N[C@@H](CC(C)C)C(=O)N[C@@H](CC(C)C)C(=O)N[C@@H](CCC(=O)O)C(=O)N[C@@H](CCC(N)=O)C(=O)N[C@@H](CCC(=O)O)C(=O)N[C@@H](CCCNC(=N)N)C(=O)N[C@@H](CCC(N)=O)C(=O)N[C@@H](CCCCN)C(=O)NC(C)(C)C(=O)N[C@@H](CCC(N)=O)C(=O)N[C@@H](CCCNC(=N)N)C(=O)N[C@@H](CCC(=O)O)C(=O)N[C@@H](CCC(N)=O)C(=O)N[C@@H](C)C(=O)N[C@@H](CCC(=O)O)C(=O)N[C@@H](CCCCN)C(=O)N[C@@H](CC(N)=O)C(=O)N[C@@H](CCC(=O)O)C(=O)N[C@@H](CCC(N)=O)C(=O)N[C@H](C(=O)N[C@@H](CC(C)C)C(=O)N[C@@H](CCC(=O)O)C(=O)N[C@@H](CCC(N)=O)C(=O)N[C@H](C(N)=O)C(C)C)[C@@H](C)CC)[C@@H](C)CC)[C@@H](C)CC)C(C)C)C(C)C` [compound 166] (Ac-IVLSLD[dV]PIKLK([AEEA-AEEA-γGlu-C18 diacid])QILLEQERQK[Aib]QREQAEKNEQILEQV-NH2) gave an EC50 with rat CRF2R α receptor of 9.99 nM. In addition, the Emax on CRF1R receptor [2] is 5.94%.
